Among the data in PubChem BioAssay (NCI) are TGI values, retold here.

Common to all, as to assay: growth of human tumour cells (NCI), 48 h
The subject of assay [1] is A498 renal.
For assay [2], the system named is CAKI-1 renal.
Assay [3] deals with CCRF-CEM leukemia.
The test system of assay [4] is DU-145 prostate.
Assay [5] relates to HCT-116 colon.
For assay [6], the system named is HL-60(TB) leukemia.
Assay [7] deals with HOP-92 NSCLC.
Assay [8] has as its system KM12 colon.
Assay [9] deals with LOX IMVI melanoma.
Assay [10] has as its system MDA-N.
The subject of assay [11] is NCI-H460 lung.
Assay [12] deals with OVCAR-5 ovarian.
Assay [13] relates to OVCAR-8 ovarian.
Assay [14] has as its system RXF 393 renal.
The test system of assay [15] is SK-MEL-28 melanoma.
Assay [16] relates to SNB-75 CNS.
For assay [17], the system named is U251 CNS.
The subject of assay [18] is SF-539 CNS.

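48-hour exposure; five concentrations; linearly interpolated endpoints. The concentration for full growth arrest is given as TGI.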

Regarding `CCCCCCCCCCCCCCCCCCNC(=O)C(N)Cc1ccc(OCc2ccccc2)cn1` (configuration not stated), the TGI in assay [1] stood at 35.4 µM; in assay [2], 32.7 µM; in assay [3] it was 78.9 µM; in [4] it was 43.4 µM; in [5], 38.2 µM; in [6], 37.1 µM. Moreover, the TGI came out at 41.3 µM in assay [7]; 35.5 µM in [8]; 41.2 µM in assay [9]; 49.2 µM in assay [10]; 29.9 µM in [11]; 43.1 µM in [12]. Also, the TGI in [13] came to 37.3 µM; in assay [14], 42.4 µM; in [15], 50.8 µM; in assay [16], 47.4 µM; in [17], 35.4 µM.

With `Cc1ccc(S(=O)(=O)n2cc(-c3cc(C(F)(F)F)ccn3)c3cc(Br)ccc32)cc1`, the TGI in assay [1] was 46.9 µM; in assay [2], 38.6 µM; in [3], above 100 µM; in assay [4] it was above 100 µM; in assay [5] it was 53 µM; in [6], above 100 µM. In addition, the TGI was 35.3 µM in assay [7]; above 100 µM in assay [8]; 92.2 µM in assay [9]; above 100 µM in assay [10]; above 100 µM in assay [11]; above 100 µM in [12]. The TGI in assay [14] amounted to 45.1 µM; in assay [18] it was 39.5 µM; in assay [15], 62.6 µM; in assay [17], 34.3 µM.

With `CCc1c2c([nH]c(=S)c1C#N)CCC2`, the TGI in assay [1], in [2], in [3], in [4], in assay [5] and in assay [6] was above 100 µM throughout. Moreover, the TGI in assay [7], in [8], in [9], in assay [10], in assay [11] and in assay [12] was above 100 µM in each case. Further, the TGI in [13], in assay [14], in [15], in [16] and in assay [17] was above 100 µM in each case.

Regarding `Cc1csc2[n+]1C(=O)/C(=C\c1ccc([N+](=O)[O-])cc1)S2`, the TGI in [1] was 45.5 µM; in assay [2], 56.4 µM; in assay [3] it was above 100 µM; in assay [4] it was above 100 µM; in [5] it was 38.7 µM; in assay [6], 64.4 µM. In addition, the TGI is 47.7 µM in [7]; 82.1 µM in assay [8]; 60.4 µM in assay [9]; 75.2 µM in assay [10]; 41.9 µM in [11]; above 100 µM in assay [12]. The TGI in [13] was above 100 µM; in [14], 82.6 µM; in assay [18] it was above 100 µM; in assay [15], above 100 µM; in assay [16] it was 57.1 µM; in [17] it was 45.7 µM.

For `COCCOC(=O)c1c(C)n([O-])c2cc(Cl)c(Cl)cc2[n+]1=O`, the TGI in [1] is 61.9 µM; in assay [2] it was 45.4 µM; in assay [3] it was 64.7 µM; in assay [4] it was 25.8 µM; in assay [6], 32 µM; in assay [7], 25.3 µM. Further, the TGI in assay [8] was 25.7 µM; in assay [9] it was 40.8 µM; in [10] it was above 100 µM; in assay [11] it was 25.9 µM; in [12], 34.6 µM; in assay [13], 25.7 µM. The TGI in assay [14] was above 100 µM; in assay [18], 51.1 µM; in [15], 61.7 µM; in [17], above 100 µM.

As to `CSc1nc(C#N)c(/N=C\N(C)C)n1C`, the TGI in [1], in [2], in assay [3], in assay [4], in assay [5] and in [6] was above 100 µM throughout. Moreover, the TGI in assay [7], in assay [8], in assay [9], in [10], in assay [11] and in assay [12] was above 100 µM throughout. Moreover, the TGI in [13], in assay [14], in assay [18], in assay [15] and in assay [17] was above 100 µM each time.

Turning to `O=S1(=O)N=C(SCc2ccccc2)N(c2ccccc2)c2ccncc21`, the TGI in assay [1] is 59.9 µM; in assay [2], above 100 µM; in assay [3], above 100 µM; in [4], above 100 µM; in [5], above 100 µM; in assay [6], above 100 µM. In addition, the TGI in assay [7] is 82.7 µM; in assay [8], above 100 µM; in [9], above 100 µM; in assay [10], 89.6 µM; in assay [11] it was above 100 µM; in assay [12] it was above 100 µM. The TGI in [13], in [14], in assay [18], in assay [15], in [16] and in assay [17] was above 100 µM in each case.

Take `O=C(ON=C1c2ccccc2C(Br)C(Br)c2ccccc21)c1cc([N+](=O)[O-])cc([N+](=O)[O-])c1` (configuration not stated): the TGI stood at 33.1 µM in assay [1]; 47.9 µM in assay [2]; 3.65 µM in assay [3]; 66 µM in assay [4]; 32.5 µM in assay [5]; 0.422 µM in assay [6]. For the same molecule, the TGI came out at 39.8 µM in assay [7]; 37.4 µM in assay [8]; 28.8 µM in [9]; 48.8 µM in [10]; 38.2 µM in [11]; 43.8 µM in [12]. Also, the TGI in assay [13] is 36.5 µM; in [14], 36.6 µM; in [18] it was 32.8 µM; in assay [15], 34.6 µM; in assay [16] it was 30.2 µM; in assay [17], 30.2 µM.
